Experimental data taken from patent US20060263802A1 (priority 2003, published 2006).

How the values were obtained:
Type in all cases: binding
[1] = tested on: human monoclonal antibody CRJB
[2] = tested on: human monoclonal antibody CR57
[3] = tested on: human monoclonal antibody CRJB; remark: listed apart in the source
[4] = tested on: human monoclonal antibody CRJA
[5] = tested on: human monoclonal antibody CRJA; remark: listed apart in the source
[6] = tested on: human monoclonal antibody CR57; remark: listed apart in the source

Sequence	Binding of CRJB (10 μg/ml) to looped/cyclic peptide (PEPSCAN-ELISA) [1]	Binding of CR57 (10 μg/ml) to looped/cyclic peptide (PEPSCAN-ELISA) [2]	Binding of CRJB to linear peptide (PEPSCAN-ELISA signal) [3]	Binding of CRJA (10 μg/ml) to looped/cyclic peptide (PEPSCAN-ELISA) [4]	Binding of CRJA to linear peptide (PEPSCAN-ELISA signal) [5]	Binding of CR57 to linear peptide (PEPSCAN-ELISA signal) [6]	Binding of CRJB (10 μg/ml) to looped/cyclic peptide (PEPSCAN-ELISA signal) [1]	Binding of CR57 (10 μg/ml) to looped/cyclic peptide (PEPSCAN-ELISA signal) [2]	Binding of CRJA (10 μg/ml) to looped/cyclic peptide (PEPSCAN-ELISA signal) [4]
LVHPLADPSTVFKDG	116	133	174	108	106	164			
LVIISPSVADLDPYD			107		104	85	102	98	117
LVNLHDFRSDEIEHL	23	1	104	93	106	47			
LVPGFGKAYTIFNKT	58	87	112	58	83	54			
LVRKREECLDALESI	82	105	130	101	107	86			
LVVEDEGCTNLSGFS			103		58	76	82	76	104
LVVEELVRKREECLD	76	68	100	50	65	64			
LYKSLKGACKLKLCG	79	91	136	107	94	93			
MAGDPRYEESLHNPY			116		71	64	62	65	71
MDGTWVAMQTSNETK	82	114	97	90	85	97			
MEADAHYKSVRTWNE	86	69	129	68	78	62			
